Measured values published in patent US10316371B2, “Screening methods for identifying specific Staphylococcus aureus inhibitors” (TRANA DISCOVERY, INC., priority 2011, dated 2019).
Converted amounts (≈) assume the structure as drawn. Read-outs that look alike come from different tables or passages of the source.

Tests used:
S. aureus ATCC 29213 = assay: Resistance passaging experiment; format: cell-based; conditions: for MIC: Staphylococcus aureus
Method: (§1) Two compounds (#880 and #169) were tested in time-kill assays against S. aureus strain 29213. These compounds were then used to attempt to select for resistant variants by passaging at sub-MIC concentrations for 20 passages.
The selected strain for this experiment was S. aureus ATCC 29213. A frozen glycerol stock was streaked onto MH-II agar and grown overnight at 37° C. The next day, 3-5 colonies were picked and grown in 3 mL of MH-II broth at 37° C. with 200 rpm shaking for approximately 4 hours. A 2-fold microdilution (in round-bottom, 96-well plates) was made for each compound being tested. CLSI guidelines for broth microdilution were followed. Using the bacteria grown from the overnight colonies, each microdilution was inoculated at a final concentration of 5×10^5 colony forming units (CFU)/mL. The microdilutions were incubated at 37° C. for 16 to 20 hours, after which the minimal inhibitory concentration (MIC) of each was read visually. The MIC is defined as the lowest concentration of compound resulting in no visible bacterial growth. This activity is recorded as the MIC at Passage 0. The contents of the well in the next dilution lower in concentration than the MIC (i.e., ½ the MIC) was mixed with a micropipette and 50 μL was transferred to 3 mL of fresh MH-II broth. This was grown at 37° C. with 200 rpm shaking for approximately 4 hours, at which time the sample was turbid. A 1 mL aliquot of this sample was added to a cryovial containing 300 μL of glycerol. This was marked as passage 1, vortexed, than placed in a −80° C. freezer for storage. The rest of the culture was adjusted to a bacterial concentration of 1×10^6cfu/mL (OD600 of 0.004), which was then used to inoculate a microdilution of the same compound (final bacterial concentration of 5×10^5 cfu/mL). This was incubated at 37° C. for 16 to 20 hours. After that time the MIC was once again read and recorded as the MIC at Passage 1. This process was repeated through 20 passages. Ciprofloxacin was included as a control and an untreated sample was also passaged 20 times as a negative control.

[1] = test system: S. aureus specific Arg ASL (anticodon stem loop) RNA oligomer interaction with programmed ribosomes; assay: Fluorescence polarization assay of Arg ASL / programmed ribosome complex (HTS and dose response); format: binding, S. aureus Arg ASL; E. coli 70S ribosomes; conditions: control compounds
From the text: The assay requires the following materials: • Ribosomes—isolated from E. coli or S. aureus • fMet tRNA (Sigma or Chemical Block, Moscow) • mRNA (including the S-D sequence, the “box” sequence, the codon for methionine, and the codon for arginine that is specific for S. aureus, AGA, optionally with additional base pairs to the left of the S-D sequence and/or to the right of the codon for arginine) • Fluorescently labeled Arg ASL oliogomer • Buffer—HAM20,β • 384 well high binding micro titer plates (Matrix Technologies #4319, sold by Fischer Scientific as cat #50823855), or other appropriate plates for use in high throughput screening • Filtration (Sartorius Stedium 100 Kdalton VC 1042) or centrifugation for complex purification • EDTA—negative control (binding antagonist) • Neomycin—A-site binding enhancer (binding agonist)
A ribosome complex was prepared using the above materials and then purified prior to use in the assay. The prepared complex can be stored in concentrated form at −80° C. The complexes were diluted in buffer and dispensed onto plates. […] Fluorescence polarization was measured at approximately 4 hours after dispensing onto the micro-titer plates.
ASL^Arg was first heated for 2 min at 90° C. in water, after addition of 1/10 V of 10× buffer incubation continued on ice for at least 10 min. Prior to complex formation 70S ribosomes and tRNA were reactivated in buffer for 5 min at 45° C. followed by 10 min at 37° C.; mRNA was heated in buffer at 37° C. for 5 min. • (1000 μl×(2 μM E. coli 70S ribosomes+10 μM mRNA-Arg+4 μM tRNA^fmet)/HAM20,β→30 min @ 37° C.,+1000 μl×(0.2 μM neomycin+[…]))→20 min @ 37° C., overnight on ice • Final complex: (2000 pm P+2000 pm ASL)/2 ml=1 μM P+1 μM ASL HAM20,β:
Preparation of Complexes: The purified complex was diluted in ice cold HAM20,β such that the total fluorescence was approximately 2,000,000 units per 5 μL.
20 μl of the diluted complex was added to all 384 well plates (except for blank wells, which received 20 μL of HAM20 only, without complex) using Multidrop dispenser after which the plates were incubated at 25° C. for 4 hours (target 4.5 hours for middle of batch). Plates were then analyzed for fluorescence polarization in Analyst HT fluorescence plate reader and the following instrument settings:
The parallel and perpendicular fluorescence values of experimental wells were automatically corrected for the corresponding values obtained from the blank wells. The fluorescence polarization was calculated as following: P=(I−Ip)/(I+Ip), wherein Ip—is perpendicular fluorescence and I—is parallel fluorescence.
The percent of effect of experimental compounds was calculated as following: %-Inh=(P0−Pc)/(P0−P100)*100, wherein P0—is average polarization in 0%—inhibition control wells, P100—is average polarization in 100%—inhibition control wells, and Pc—is polarization in compound well.
The 3 sigma HTS hits were cherry picked and retested in 6 pt dose response format, using 3× serial dilution and the top nominal concentration of 100 uM.
The compounds were serially diluted in 10% DMSO and plated into 384 well plates (in a volume of 5 μL) to achieve the nominal final concentration raging from 100 μM to 0.4 μM. The plates received 20 μl of the diluted complex following incubation at 25° C. for 4 hours. Plates were then analyzed for fluorescence polarization as described above (see HTS section).
In parallel, the compounds were tested for auto-fluorescence. To this end, the compounds were plated (using the same dilution protocol) into 384 well plates. The plates received 20 μL of the HAM20 assay buffer only (without complex). The plates were incubated for 4 hrs and then were analyzed for fluorescence polarization as described above.

S. aureus strain 29213 = assay: Time-kill experiments; format: cell-based; conditions: by 8 hours
Method: as §1
Twenty mL of MH-II media warmed to 37° C. was seeded with log-phase growth S. aureus strain 29213 at 1×10^6 cfu/mL in 50 mL erlenmeyer shake-flasks. Compound was added at 2× and 4× the MIC value. Negative controls (no drug) and positive drug controls (vancomycin at 2× and 4× the MIC) were included in the experiment. Flasks were shaken at 200 rpm and 37° C. Samples were taken at the times indicated (0, 2, 4, 6, 8 and 24 hrs post inoculation) and bacterial loads were quantified by limiting dilution assay.

## O=C(O)c1cn(C2CC2)c2cc(N3CCNCC3)c(F)cc2c1=O [Ciprofloxacin]
S. aureus ATCC 29213; Passage 0
  MIC in S. aureus 29213: 0.5 µg/mL (≈ 1.51 µM)
S. aureus ATCC 29213; Passage 20, passaged at sub-MIC
  MIC in S. aureus 29213: > 256 µg/mL
S. aureus ATCC 29213; ATCC29213, read-out: MIC in S. aureus 29213, Passage 0
  MIC: 0.5 µg/mL (≈ 1.51 µM)
S. aureus ATCC 29213; ATCC29213, read-out: MIC in S. aureus 29213, Passage 1, passaged at sub-MIC
  MIC: 1 µg/mL (≈ 3.02 µM)
S. aureus ATCC 29213; ATCC29213, read-out: MIC in S. aureus 29213, Passage 2, passaged at sub-MIC
  MIC: 2 µg/mL (≈ 6.04 µM)
S. aureus ATCC 29213; ATCC29213, read-out: MIC in S. aureus 29213, Passage 3, passaged at sub-MIC
  MIC: 2 µg/mL (≈ 6.04 µM)
S. aureus ATCC 29213; ATCC29213, read-out: MIC in S. aureus 29213, Passage 4, passaged at sub-MIC
  MIC: 2 µg/mL (≈ 6.04 µM)
S. aureus ATCC 29213; ATCC29213, read-out: MIC in S. aureus 29213, Passage 5, passaged at sub-MIC
  MIC: 2 µg/mL (≈ 6.04 µM)
S. aureus ATCC 29213; ATCC29213, read-out: MIC in S. aureus 29213, Passage 6, passaged at sub-MIC
  MIC: 2 µg/mL (≈ 6.04 µM)
S. aureus ATCC 29213; ATCC29213, read-out: MIC in S. aureus 29213, Passage 7, passaged at sub-MIC
  MIC: 2 µg/mL (≈ 6.04 µM)
S. aureus ATCC 29213; ATCC29213, read-out: MIC in S. aureus 29213, Passage 8, passaged at sub-MIC
  MIC: 4 µg/mL (≈ 12.1 µM)
S. aureus ATCC 29213; ATCC29213, read-out: MIC in S. aureus 29213, Passage 9, passaged at sub-MIC
  MIC: 8 µg/mL (≈ 24.1 µM)
S. aureus ATCC 29213; ATCC29213, read-out: MIC in S. aureus 29213, Passage 10, passaged at sub-MIC
  MIC: 8 µg/mL (≈ 24.1 µM)
S. aureus ATCC 29213; ATCC29213, read-out: MIC in S. aureus 29213, Passage 11, passaged at sub-MIC
  MIC: 16 µg/mL (≈ 48.3 µM)
S. aureus ATCC 29213; ATCC29213, read-out: MIC in S. aureus 29213, Passage 12, passaged at sub-MIC
  MIC: 16 µg/mL (≈ 48.3 µM)
S. aureus ATCC 29213; ATCC29213, read-out: MIC in S. aureus 29213, Passage 13, passaged at sub-MIC
  MIC: 32 µg/mL (≈ 96.6 µM)
S. aureus ATCC 29213; ATCC29213, read-out: MIC in S. aureus 29213, Passage 14, passaged at sub-MIC
  MIC: 32 µg/mL (≈ 96.6 µM)
S. aureus ATCC 29213; ATCC29213, read-out: MIC in S. aureus 29213, Passage 15, passaged at sub-MIC
  MIC: 32 µg/mL (≈ 96.6 µM)
S. aureus ATCC 29213; ATCC29213, read-out: MIC in S. aureus 29213, Passage 16, passaged at sub-MIC
  MIC: 64 µg/mL (≈ 193 µM)
S. aureus ATCC 29213; ATCC29213, read-out: MIC in S. aureus 29213, Passage 17, passaged at sub-MIC
  MIC: 128 µg/mL (≈ 386 µM)
S. aureus ATCC 29213; ATCC29213, read-out: MIC in S. aureus 29213, Passage 18, passaged at sub-MIC
  MIC: 128 µg/mL (≈ 386 µM)
S. aureus ATCC 29213; ATCC29213, read-out: MIC in S. aureus 29213, Passage 19, passaged at sub-MIC
  MIC: 256 µg/mL (≈ 773 µM)
S. aureus ATCC 29213; ATCC29213, read-out: MIC in S. aureus 29213, Passage 20, passaged at sub-MIC
  MIC: > 256 µg/mL
S. aureus ATCC 29213; ATCC29213, read-out: MIC in S. aureus 29213, second Passage 10 line of Table 4 (untreated culture passaged 10 times)
  MIC: 0.5 µg/mL (≈ 1.51 µM)
S. aureus ATCC 29213; ATCC29213, read-out: MIC in S. aureus 29213, second Passage 20 line of Table 4 (untreated culture passaged 20 times)
  MIC: 0.5 µg/mL (≈ 1.51 µM)
S. aureus ATCC 29213; passaging at sub-MIC concentration, 20 passages
  increase of MIC over 20 passages: > 512 fold

## O=C(O)CN(CCN(CC(=O)O)CC(=O)O)CC(=O)O [EDTA, reference compound]
[1]
  effect on complex formation (fluorescence polarization versus time, FIG. 11): inhibitor of complex formation

## CN[C@H](CC(C)C)C(=O)N[C@H]1C(=O)N[C@@H](CC(N)=O)C(=O)N[C@H]2C(=O)N[C@H]3C(=O)N[C@H](C(=O)N[C@H](C(=O)O)c4cc(O)cc(O)c4-c4cc3ccc4O)[C@H](O)c3ccc(c(Cl)c3)Oc3cc2cc(c3O[C@@H]2O[C@H](CO)[C@@H](O)[C@H](O)[C@H]2O[C@H]2C[C@](C)(N)[C@H](O)[C@H](C)O2)Oc2ccc(cc2Cl)[C@H]1O [Vancomycin, reference compound]
S. aureus strain 29213; 2× the MIC
  reduction of bacterial counts: 2.5 log10
S. aureus strain 29213; 4× the MIC
  reduction of bacterial counts (killing): 2.5 log10

## Neomycin [reference compound]
[1]
  effect on complex formation (fluorescence polarization versus time, FIG. 11): stabilizer of complex formation
